Experiments:
Type in all cases: cell-based
[1] = test system: Pseudomonas aeruginosa IFO 12689; assay: growth suppression/inhibition on agar media, colonies observed visually; settings: agar medium pH 7.0, 37° C. one night; BHA 0.5%, BHT 0.5%, 1,5-D-anhydrofructose 1%
[2] = test system: Bacillus subtillis IFO 3009; assay: as above; settings: agar medium pH 6.5, 37° C. one night
Text: (§1) Under the circumstances, influences on growth of a variety of bacteria in the presence of 1,5-D-anhydrofructose with or without sodium ascorbate which is a typical antioxidant to be used in food and beverages were examined.
(§2) After the bacterial strains were suspended in physiological salt solutions, they were inoculated into agar media (each containing 0.25% of yeast extract, 0.5% of polypeptone, 1.0% of glucose and 1.5% of soft agar and having a pH of 6.5) with platinum loops and then cultured at 37° C. until colonies were formed. Thereafter, the bacteria were inoculated, with sterilized toothpicks, from the colonies into agar media of the above composition each of which contained 1.0% of sodium ascorbate and 1.0% of 1,5-D-anhydrofructose, and into agar media of the above composition each of which contained 1.0% of 1,5-D-anhydrofructose and no sodium ascorbate. For controls, culture media of the same composition each of which contained neither sodium ascorbate nor 1,5-D-anhydrofructose and culture media of the same composition each of which contained 1.0% of sodium ascorbate and no 1,5-D-anhydrofructose were used. Abilities of sodium ascorbate and 1,5-D-anhydrofructose to suppress/inhibit growth of the bacteria were evaluated by visually observing the colonies formed after the bacteria were cultured at 37° C. for one night.
(§3) The substances were used at concentrations shown in the legend of Table 4.
(§4) Those cultured in the absence of the chelating agents, 1,5-D-anhydrofructose, sodium ascorbate and sodium erythorbate were taken as controls. As for an agar medium, a method for inoculating the bacteria, conditions for culturing the bacteria, and a method for evaluating a growth suppressing/inhibiting ability, they are the same as those used in the tests whose results are shown in Tables 2 and 3.

[3] = test system: Streptococcus eqinus ATCC 9812; assay: as above; settings: agar medium pH 6.5, 37° C. one night
Text: as §1, §2, §3, §4

[4] = test system: Enterobactor cloacae JCM 1232; assay: as above; settings: agar medium pH 6.5, 37° C. one night
Text: as §1, §2, §3, §4

[5] = test system: Pseudomonas aeruginosa IFO 12689; assay: as above; settings: agar medium pH 6.5, 37° C. one night
Text: as §1, §2, §3, §4

[6] = test system: Enterobactor cloacae JCM 1232; assay: as above; settings: agar medium pH 7.0, 37° C. one night; BHA 0.5%, BHT 0.5%, 1,5-D-anhydrofructose 1%
[7] = test system: gram-positive bacteria; assay: minimum growth inhibitory concentration / growth inhibition in agar media; settings: agar media, without any antioxidant or chelating agent
Method: When a variety of bacteria are cultured in agar media in the presence of 1,5-D-anhydrofructose without any of an antioxidant or a chelating agent, a minimum growth inhibitory concentration of 1,5-D-anhydrofructose is 3.0 to 5.0% for gram-negative bacteria and 1.0 to 3.0% for gram-positive bacteria. Under the circumstances, influences on growth of a variety of bacteria in the presence of 1,5-D-anhydrofructose with or without sodium ascorbate which is a typical antioxidant to be used in food and beverages were examined.
as §2, with “[…])” for “1.0% of glucose and 1.5% of soft agar and having a pH of 6.5)”
as §3

[8] = test system: Streptococcus eqinus ATCC 9812; assay: growth suppression/inhibition on agar media, colonies observed visually; settings: agar medium pH 7.0, 37° C. one night; BHA 0.5%, BHT 0.5%, 1,5-D-anhydrofructose 1%
[9] = test system: Lactobacillus casei ATCC 393; assay: as above
Method: as §1
as §2, with “[…])” for “1.0% of glucose and 1.5% of soft agar and having a pH of 6.5)”
as §3, §4

[10] = test system: Bacillus cereus IFO 3131; assay: as above
Method: as §1
as §2, with “[…])” for “1.0% of glucose and 1.5% of soft agar and having a pH of 6.5)”
as §3, §4

[11] = test system: Proteus vulgaris IFO 3851; assay: as above
Method: as §1
as §2, with “[…])” for “1.0% of glucose and 1.5% of soft agar and having a pH of 6.5)”
as §3, §4

[12] = test system: Escherichia coli IFO 3301; assay: as above
Method: as §1
as §2, with “[…])” for “1.0% of glucose and 1.5% of soft agar and having a pH of 6.5)”
as §3, §4

[13] = test system: Bacillus subtillis IFO 3009; assay: as above; settings: agar medium pH 7.0, 37° C. one night; BHA 0.5%, BHT 0.5%, 1,5-D-anhydrofructose 1%
[14] = 1,5-D-anhydrofructose 1%, sodium citrate 0.5%, sodium polyphosphate 0.2%, sodium malate 0.5%, sodium gluconate 0.5%, sodium tartrate 0.5%, sodium ascorbate 1%, sodium erythorbate 0.2%
[15] = sodium ascorbate 1%, 1,5-D-anhydrofructose 1%
[16] = sodium erythorbate 0.2%, 1,5-D-anhydrofructose 1%
[17] = agar medium pH 6.5, 37° C. one night, 1,5-D-anhydrofructose 1%, sodium citrate 0.5%, sodium polyphosphate 0.2%, sodium malate 0.5%, sodium gluconate 0.5%, sodium tartrate 0.5%, sodium ascorbate 1%, sodium erythorbate 0.2%
[18] = agar medium pH 6.5, 37° C. one night, sodium ascorbate 1%, 1,5-D-anhydrofructose 1%
[19] = agar medium pH 6.5, 37° C. one night, sodium erythorbate 0.2%, 1,5-D-anhydrofructose 1%
[20] = agar medium pH 7.0, 37° C. one night, BHA 0.5%, BHT 0.5%, 1,5-D-anhydrofructose 1%

With `O=C1CO[C@H](CO)[C@@H](O)[C@@H]1O` [1,5-D-anhydrofructose] the “condition of the colonies” value [1] was “+”, the “condition of the colonies” value [2, 14] was “+” and the “condition of the colonies” value [2, 15] was “+”. For the same molecule, the “condition of the colonies” value [2, 16] was “+”, the “condition of the colonies” value [3, 14] was “±” and the “condition of the colonies” value [3, 15] was “±”. For the same molecule, the “condition of the colonies” value [3, 16] was “±”, the “condition of the colonies” value [4, 14] was “+” and the “condition of the colonies” value [4, 15] was “+”. The “condition of the colonies” value [4, 16] was “+”, the “condition of the colonies” value [5, 14] was “+” and the “condition of the colonies” value [5, 15] was “+”. The “condition of the colonies” value [5, 16] was “+”, the “condition of the colonies” value [6] was “+” and the “minimum growth inhibitory concentration” value [7] was 1.0 to 3.0%. For the same molecule, the “condition of the colonies” value [8] was “±”, the “condition of the colonies” value [9, 17] was “±” and the “condition of the colonies” value [9, 18] was “±”. For the same molecule, the “condition of the colonies” value [9, 19] was “±”, the “condition of the colonies” value [9, 20] was “±” and the “condition of the colonies” value [10, 17] was “±”. The “condition of the colonies” value [10, 18] was “±”, the “condition of the colonies” value [10, 19] was “±” and the “condition of the colonies” value [10, 20] was “±”. For the same molecule, the “condition of the colonies” value [11, 17] was “±”, the “condition of the colonies” value [11, 18] was “±” and the “condition of the colonies” value [11, 19] was “±”. For the same molecule, the “condition of the colonies” value [11, 20] was “±”, the “condition of the colonies” value [12, 17] was “+” and the “condition of the colonies” value [12, 18] was “+”. For the same molecule, the “condition of the colonies” value [12, 19] was “+”, the “condition of the colonies” value [12, 20] was “+” and the “condition of the colonies” value [13] was “+”.
